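Compound exposure: 48 hours, 5 concentrations, 96-well plates. GI50 marks 50% less growth. The concentration for full growth arrest is given as TGI.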
How the values were obtained:
Assay in all cases: NCI tumour cell line growth inhibition, 48 h
UACC-62 melanoma = system: UACC-62 melanoma
SK-MEL-2 melanoma = system: SK-MEL-2 melanoma
SW-620 colon = system: SW-620 colon
RPMI-8226 leukemia = system: RPMI-8226 leukemia
HS 578T breast = system: HS 578T breast
CAKI-1 renal = system: CAKI-1 renal
NCI-H522 lung = system: NCI-H522 lung
HCT-15 colon = system: HCT-15 colon
NCI-H226 lung = system: NCI-H226 lung
EKVX NSCLC = system: EKVX NSCLC
U251 CNS = system: U251 CNS
K-562 leukemia = system: K-562 leukemia
SK-MEL-5 melanoma = system: SK-MEL-5 melanoma
DU-145 prostate = system: DU-145 prostate
MDA-MB-435 = system: MDA-MB-435
HCT-116 colon = system: HCT-116 colon
HL-60(TB) leukemia = system: HL-60(TB) leukemia
M14 melanoma = system: M14 melanoma
CCRF-CEM leukemia = system: CCRF-CEM leukemia
786-0 renal = system: 786-0 renal
MALME-3M melanoma = system: MALME-3M melanoma
OVCAR-4 ovarian = system: OVCAR-4 ovarian
A549 NSCLC = system: A549 NSCLC
HT29 colon = system: HT29 colon
ACHN renal = system: ACHN renal
SNB-75 CNS = system: SNB-75 CNS
MDA-MB-231 breast = system: MDA-MB-231 breast
NCI-H23 lung = system: NCI-H23 lung
A498 renal = system: A498 renal
HCC-2998 colon = system: HCC-2998 colon
MCF7 breast = system: MCF7 breast
OVCAR-3 ovarian = system: OVCAR-3 ovarian
T-47D breast = system: T-47D breast
SF-539 CNS = system: SF-539 CNS
KM12 colon = system: KM12 colon
SNB-19 CNS = system: SNB-19 CNS
SK-MEL-28 melanoma = system: SK-MEL-28 melanoma
SF-295 CNS = system: SF-295 CNS
IGROV1 ovarian = system: IGROV1 ovarian
HOP-62 NSCLC = system: HOP-62 NSCLC
OVCAR-5 ovarian = system: OVCAR-5 ovarian
BT-549 breast = system: BT-549 breast
PC-3 prostate = system: PC-3 prostate
OVCAR-8 ovarian = system: OVCAR-8 ovarian
RXF 393 renal = system: RXF 393 renal
HOP-92 NSCLC = system: HOP-92 NSCLC
NCI/ADR-RES ovarian = system: NCI/ADR-RES ovarian
TK-10 renal = system: TK-10 renal
SK-OV-3 ovarian = system: SK-OV-3 ovarian
COLO 205 colon = system: COLO 205 colon
NCI-H460 lung = system: NCI-H460 lung
LOX IMVI melanoma = system: LOX IMVI melanoma
SR leukemia = system: SR leukemia
UACC-257 melanoma = system: UACC-257 melanoma
SN12C renal = system: SN12C renal
MOLT-4 leukemia = system: MOLT-4 leukemia
SF-268 CNS = system: SF-268 CNS
UO-31 renal = system: UO-31 renal

`COC1=C(C)C(=O)N2[C@@H]1[C@H](c1ccccc1)OC21C=CC(=O)C=C1` was tested. Which GI50 (UACC-62 melanoma) did it give?
The GI50 was 1.35 µM.

And the TGI (UACC-62 melanoma)?
The TGI was 5.51 µM.

What about the GI50 (SK-MEL-2 melanoma) of the same compound?
Its GI50 is 6.92 µM.

And the TGI (SK-MEL-2 melanoma)?
Its TGI is 19.6 µM.

What about the GI50 (SW-620 colon) of the same compound?
The GI50 was 0.923 µM.

And the TGI (SW-620 colon)?
Its TGI is 2.78 µM.

And the GI50 (RPMI-8226 leukemia)?
Its GI50 is 1.33 µM.

And the TGI (RPMI-8226 leukemia)?
The TGI was 8.44 µM.

And the GI50 (HS 578T breast)?
The GI50 was 12.5 µM.

What about the TGI (HS 578T breast) of the same compound?
Its TGI is > 40.9 µM.

What about the GI50 (CAKI-1 renal) of the same compound?
The GI50 was 0.804 µM.

And the TGI (CAKI-1 renal)?
Its TGI is 2.39 µM.

What about the GI50 (NCI-H522 lung) of the same compound?
The GI50 was 0.555 µM.

And the TGI (NCI-H522 lung)?
Its TGI is 1.35 µM.

And the GI50 (HCT-15 colon)?
Its GI50 is 0.697 µM.

And the TGI (HCT-15 colon)?
Its TGI is 2.21 µM.

And the GI50 (NCI-H226 lung)?
Its GI50 is 9.79 µM.

What about the TGI (NCI-H226 lung) of the same compound?
The TGI was > 31.1 µM.

What about the GI50 (EKVX NSCLC) of the same compound?
The GI50 was 10.7 µM.

And the TGI (EKVX NSCLC)?
The TGI was > 33.8 µM.

And the GI50 (U251 CNS)?
Its GI50 is 5.61 µM.

And the TGI (U251 CNS)?
Its TGI is 11 µM.

And the GI50 (K-562 leukemia)?
The GI50 was 1.11 µM.

What about the TGI (K-562 leukemia) of the same compound?
Its TGI is > 67 µM.

What about the GI50 (SK-MEL-5 melanoma) of the same compound?
The GI50 was 5.05 µM.

And the TGI (SK-MEL-5 melanoma)?
Its TGI is 9.94 µM.

What about the GI50 (DU-145 prostate) of the same compound?
Its GI50 is 3.69 µM.

And the TGI (DU-145 prostate)?
Its TGI is 19.1 µM.

And the GI50 (MDA-MB-435)?
Its GI50 is 1.97 µM.

What about the TGI (MDA-MB-435) of the same compound?
The TGI was 7.32 µM.

And the GI50 (HCT-116 colon)?
The GI50 was 0.984 µM.

What about the TGI (HCT-116 colon) of the same compound?
Its TGI is 3.81 µM.

And the GI50 (HL-60(TB) leukemia)?
The GI50 was 0.922 µM.

And the TGI (HL-60(TB) leukemia)?
Its TGI is 4.57 µM.

What about the GI50 (M14 melanoma) of the same compound?
Its GI50 is 4.39 µM.

And the TGI (M14 melanoma)?
The TGI was 12.5 µM.

And the GI50 (CCRF-CEM leukemia)?
The GI50 was 0.925 µM.

And the TGI (CCRF-CEM leukemia)?
Its TGI is 3.87 µM.

And the GI50 (786-0 renal)?
The GI50 was 2.86 µM.

What about the TGI (786-0 renal) of the same compound?
Its TGI is 8.22 µM.

And the GI50 (MALME-3M melanoma)?
The GI50 was 1.08 µM.

And the TGI (MALME-3M melanoma)?
The TGI was 4.32 µM.

And the GI50 (OVCAR-4 ovarian)?
The GI50 was 3.51 µM.

What about the TGI (OVCAR-4 ovarian) of the same compound?
Its TGI is 16.6 µM.

And the GI50 (A549 NSCLC)?
Its GI50 is 10.8 µM.

What about the TGI (A549 NSCLC) of the same compound?
The TGI was 38.9 µM.

What about the GI50 (HT29 colon) of the same compound?
The GI50 was 1.28 µM.

And the TGI (HT29 colon)?
The TGI was 4.28 µM.

What about the GI50 (ACHN renal) of the same compound?
Its GI50 is 0.658 µM.

What about the TGI (ACHN renal) of the same compound?
The TGI was 1.36 µM.

What about the GI50 (SNB-75 CNS) of the same compound?
Its GI50 is 12.1 µM.

What about the TGI (SNB-75 CNS) of the same compound?
The TGI was 50 µM.

What about the GI50 (MDA-MB-231 breast) of the same compound?
Its GI50 is 2.77 µM.

And the TGI (MDA-MB-231 breast)?
The TGI was 9.27 µM.

And the GI50 (NCI-H23 lung)?
Its GI50 is 4.07 µM.

And the TGI (NCI-H23 lung)?
The TGI was 18.5 µM.

And the GI50 (A498 renal)?
The GI50 was 27.4 µM.

And the TGI (A498 renal)?
Its TGI is > 89.4 µM.

What about the GI50 (HCC-2998 colon) of the same compound?
The GI50 was 5.86 µM.

What about the TGI (HCC-2998 colon) of the same compound?
The TGI was 10.9 µM.

And the GI50 (MCF7 breast)?
The GI50 was 1.07 µM.

What about the TGI (MCF7 breast) of the same compound?
The TGI was 5.39 µM.

What about the GI50 (OVCAR-3 ovarian) of the same compound?
Its GI50 is 1.09 µM.

And the TGI (OVCAR-3 ovarian)?
The TGI was 3.74 µM.

And the GI50 (T-47D breast)?
Its GI50 is 1.73 µM.

And the TGI (T-47D breast)?
Its TGI is 9.99 µM.

And the GI50 (SF-539 CNS)?
Its GI50 is 4.73 µM.

What about the TGI (SF-539 CNS) of the same compound?
The TGI was 11.5 µM.

What about the GI50 (KM12 colon) of the same compound?
The GI50 was 5.99 µM.

What about the TGI (KM12 colon) of the same compound?
Its TGI is 12.9 µM.

And the GI50 (SNB-19 CNS)?
The GI50 was 42.8 µM.

What about the TGI (SNB-19 CNS) of the same compound?
The TGI was > 100 µM.

What about the GI50 (SK-MEL-28 melanoma) of the same compound?
Its GI50 is 1.2 µM.

And the TGI (SK-MEL-28 melanoma)?
Its TGI is 6.68 µM.

What about the GI50 (SF-295 CNS) of the same compound?
The GI50 was 15.5 µM.

What about the TGI (SF-295 CNS) of the same compound?
Its TGI is 46.9 µM.

And the GI50 (IGROV1 ovarian)?
Its GI50 is 6.83 µM.

And the TGI (IGROV1 ovarian)?
The TGI was 21.7 µM.

What about the GI50 (HOP-62 NSCLC) of the same compound?
Its GI50 is 10.8 µM.

What about the TGI (HOP-62 NSCLC) of the same compound?
Its TGI is 24.9 µM.

And the GI50 (OVCAR-5 ovarian)?
Its GI50 is 3.78 µM.

What about the TGI (OVCAR-5 ovarian) of the same compound?
Its TGI is 11.6 µM.

And the GI50 (BT-549 breast)?
Its GI50 is 2.97 µM.

And the TGI (BT-549 breast)?
Its TGI is 9.47 µM.

What about the GI50 (PC-3 prostate) of the same compound?
Its GI50 is 7.81 µM.

What about the TGI (PC-3 prostate) of the same compound?
The TGI was > 32 µM.

What about the GI50 (OVCAR-8 ovarian) of the same compound?
Its GI50 is 1.1 µM.

What about the TGI (OVCAR-8 ovarian) of the same compound?
The TGI was > 36.5 µM.

And the GI50 (RXF 393 renal)?
The GI50 was 1.42 µM.

What about the TGI (RXF 393 renal) of the same compound?
Its TGI is 6.26 µM.

And the GI50 (HOP-92 NSCLC)?
The GI50 was 2.48 µM.

What about the TGI (HOP-92 NSCLC) of the same compound?
Its TGI is 7.65 µM.

And the GI50 (NCI/ADR-RES ovarian)?
The GI50 was 3.36 µM.

What about the TGI (NCI/ADR-RES ovarian) of the same compound?
The TGI was > 47.4 µM.

And the GI50 (TK-10 renal)?
Its GI50 is 1.41 µM.

And the TGI (TK-10 renal)?
The TGI was 6.29 µM.

What about the GI50 (SK-OV-3 ovarian) of the same compound?
The GI50 was > 41.9 µM.

What about the TGI (SK-OV-3 ovarian) of the same compound?
The TGI was > 100 µM.

What about the GI50 (COLO 205 colon) of the same compound?
Its GI50 is 2.56 µM.

What about the TGI (COLO 205 colon) of the same compound?
Its TGI is 7.81 µM.

And the GI50 (NCI-H460 lung)?
Its GI50 is 8.13 µM.

What about the TGI (NCI-H460 lung) of the same compound?
The TGI was 21.8 µM.

What about the GI50 (LOX IMVI melanoma) of the same compound?
Its GI50 is 0.757 µM.

What about the TGI (LOX IMVI melanoma) of the same compound?
Its TGI is 2.69 µM.

What about the GI50 (SR leukemia) of the same compound?
The GI50 was 0.673 µM.

What about the TGI (SR leukemia) of the same compound?
Its TGI is 15.5 µM.

And the GI50 (UACC-257 melanoma)?
The GI50 was 4.97 µM.

What about the TGI (UACC-257 melanoma) of the same compound?
Its TGI is 15.5 µM.

And the GI50 (SN12C renal)?
The GI50 was 3.64 µM.

And the TGI (SN12C renal)?
Its TGI is 27.7 µM.

What about the GI50 (MOLT-4 leukemia) of the same compound?
The GI50 was 2.23 µM.

And the TGI (MOLT-4 leukemia)?
Its TGI is 11 µM.

And the GI50 (SF-268 CNS)?
The GI50 was 8.89 µM.

And the TGI (SF-268 CNS)?
Its TGI is 31.9 µM.

What about the GI50 (UO-31 renal) of the same compound?
Its GI50 is 1.31 µM.

What about the TGI (UO-31 renal) of the same compound?
The TGI was 3.88 µM.

— PubChem BioAssay (NCI)
